The values that follow come from ChEMBL document CHEMBL1201862, “PubChem BioAssay data set” (2004).

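Each compound was tested at five concentrations against cells in 96-well plates for 48 hours. The concentration for 50% growth inhibition is given as GI50.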 Activity calls are given as the source filed them. Cut-off read from the data, not from the text of the source: active = GI50 up to about 1.1 µM and inactive = higher. A value given as a limit tells only on which side of the number the result lay.

Some test systems named below: PC-3; MDA-MB-435; A498; RPMI-8226; ACHN; HOP-62; SK-OV-3; LOX IMVI; SF-268; NCI-H460; KM12; A549; SF-539; SNB-19; SK-MEL-5; BT-549; DU-145; CCRF-CEM; EKVX; MDA-MB-231.
Common to all, as to assay: NCI anticancer screen, dose series, 48 h

Consider `COc1ccc(C(=O)Cn2c(C(C)=O)nc3ccccc32)cc1`, for which the GI50 in the assay on PC-3 is 6.98 µM (inactive); in the assay with MDA-MB-435, 13.5 µM (inactive); with A498 it was 67 µM (inactive); in the assay with RPMI-8226, 14.6 µM (inactive); in the assay on ACHN, 8.59 µM (inactive); with HOP-62 it was 12.1 µM (inactive). For the same molecule, the GI50 was 14.7 µM (inactive) in the assay on SK-OV-3; 2.91 µM (inactive) in the assay with LOX IMVI; > 64.9 µM (inactive) in the assay on SF-268; 4.21 µM (inactive) in the assay with NCI-H460; 7.1 µM (inactive) with KM12; 5.31 µM (inactive) in the assay with A549. Further, the GI50 is > 53.5 µM (inactive) in the assay on SF-539; > 34.1 µM (inactive) with SNB-19; 4.15 µM (inactive) in the assay on SK-MEL-5; 8.45 µM (inactive) with BT-549; 30.7 µM (inactive) in the assay with DU-145; 5.93 µM (inactive) in the assay with CCRF-CEM. Besides, the GI50 with EKVX is 76.9 µM (inactive); in the assay with MDA-MB-231, 4.82 µM (inactive).

Take `Cc1nnc(S(=O)(=O)c2ccc(/N=N/c3c(N)nc(N)nc3N)cc2)s1`: the GI50 with PC-3, in the assay on MDA-MB-435, with A498, in the assay on RPMI-8226, with ACHN and in the assay with HOP-62 was > 100 µM (inactive) throughout. The GI50 with SK-OV-3, in the assay on LOX IMVI, in the assay with SF-268, in the assay with NCI-H460, in the assay with KM12 and with A549 was > 100 µM (inactive) in each case. Further, the GI50 with SF-539, with SNB-19, with SK-MEL-5, in the assay on BT-549, in the assay on DU-145 and with CCRF-CEM was > 100 µM (inactive) in each case. In addition, the GI50 with EKVX and with MDA-MB-231 was > 100 µM (inactive) each time.

In the case of `C[n+]1c(Cl)cn2c3nc4ccccc4nc3c([O-])c(C#N)c21`, the GI50 was > 100 µM (inactive) with PC-3; > 100 µM (inactive) in the assay with MDA-MB-435; > 62.7 µM (inactive) in the assay with A498; > 100 µM (inactive) with RPMI-8226; 99.1 µM (inactive) in the assay with ACHN; > 10 µM (inactive) in the assay on HOP-62. Moreover, the GI50 in the assay on SK-OV-3 is > 100 µM (inactive); with LOX IMVI it was > 100 µM (inactive); in the assay with SF-268, > 81.3 µM (inactive); in the assay on NCI-H460 it was 9.48 µM (inactive); in the assay on KM12, > 10 µM (inactive); in the assay on A549 it was > 100 µM (inactive). Further, the GI50 in the assay on SF-539 is 9.31 µM (inactive); in the assay with SNB-19, > 100 µM (inactive); in the assay with SK-MEL-5 it was > 4.65 µM (inactive); with BT-549, > 100 µM (inactive); with DU-145, > 100 µM (inactive); in the assay with CCRF-CEM, 77.3 µM (inactive). The GI50 in the assay on EKVX and with MDA-MB-231 was > 100 µM (inactive) each time.

Take `O=C(O)[C@@H]1C2CC([C@@H]1C(=O)O)[C@H](N1C(=O)CCC1=O)[C@@H]2Br` (stereo not given in full): the GI50 in the assay with PC-3, with MDA-MB-435, in the assay with A498, with RPMI-8226, with ACHN and in the assay with HOP-62 was > 100 µM (inactive) in each case. For the same molecule, the GI50 in the assay with SK-OV-3, in the assay on LOX IMVI, with SF-268, with NCI-H460, in the assay with KM12 and in the assay with A549 was > 100 µM (inactive) throughout. The GI50 with SF-539, in the assay with SNB-19, with SK-MEL-5, in the assay on BT-549, in the assay on DU-145 and with CCRF-CEM was > 100 µM (inactive) throughout. In addition, the GI50 in the assay on EKVX and with MDA-MB-231 was > 100 µM (inactive) in each case.

For the molecule `c1ccc(-c2cc(-c3cccs3)c(-c3cccs3)o2)cc1`, the GI50 in the assay with PC-3, in the assay on MDA-MB-435, in the assay with A498, in the assay with RPMI-8226, in the assay on ACHN and in the assay with HOP-62 was > 100 µM (inactive) in each case. For the same molecule, the GI50 in the assay with SK-OV-3 is > 100 µM (inactive); in the assay on LOX IMVI, > 100 µM (inactive); in the assay with SF-268, > 100 µM (inactive); in the assay on NCI-H460, > 100 µM (inactive); with KM12, 48.4 µM (inactive); in the assay on A549 it was > 100 µM (inactive). Also, the GI50 in the assay with SF-539, with SNB-19, in the assay with SK-MEL-5, with BT-549, in the assay with DU-145 and in the assay with CCRF-CEM was > 100 µM (inactive) throughout. For the same molecule, the GI50 in the assay on EKVX and in the assay on MDA-MB-231 was > 100 µM (inactive) each time.

As to `Fc1ccc(C(=C2CCN(CCc3ccc4[nH]c(=S)[nH]c4c3)CC2)c2ccc(F)cc2)cc1`, the GI50 in the assay with PC-3 is 2.73 µM (inactive); in the assay with MDA-MB-435, 1.79 µM (inactive); with A498, 8.38 µM (inactive); in the assay with RPMI-8226, 2.73 µM (inactive); in the assay on ACHN, 8.83 µM (inactive); in the assay with HOP-62, 15.8 µM (inactive). Moreover, the GI50 in the assay on SK-OV-3 was 18.7 µM (inactive); with LOX IMVI, 4.9 µM (inactive); with SF-268, 6.65 µM (inactive); with NCI-H460, 2.83 µM (inactive); in the assay with KM12, 6.47 µM (inactive); in the assay with A549, 3.94 µM (inactive). Also, the GI50 in the assay with SF-539 is 2.79 µM (inactive); in the assay with SNB-19, 12.4 µM (inactive); in the assay on SK-MEL-5 it was 1.84 µM (inactive); with BT-549, 5.98 µM (inactive); in the assay on DU-145, 2.98 µM (inactive); with CCRF-CEM, 2.01 µM (inactive). The GI50 in the assay on EKVX is 3.51 µM (inactive); in the assay with MDA-MB-231 it was 4.43 µM (inactive).

Regarding `CC(C)=C1CCC(CN2CCOCC2)C1=O` (stereo not given), the GI50 in the assay on PC-3 is 17.5 µM (inactive); in the assay with MDA-MB-435 it was 15.3 µM (inactive); in the assay on A498, 33.7 µM (inactive); with RPMI-8226, 0.953 µM (active); in the assay with ACHN, 9.84 µM (inactive); with HOP-62, > 55.5 µM (inactive). The GI50 is > 100 µM (inactive) in the assay with SK-OV-3; 19.9 µM (inactive) with LOX IMVI; 15.2 µM (inactive) with SF-268; 27.2 µM (inactive) with NCI-H460; 29.4 µM (inactive) in the assay with KM12; 20.4 µM (inactive) in the assay on A549. Moreover, the GI50 in the assay on SF-539 is 17.4 µM (inactive); in the assay with SNB-19, 60.5 µM (inactive); in the assay with SK-MEL-5 it was 15.9 µM (inactive); with BT-549, 17.3 µM (inactive); with DU-145, 16.4 µM (inactive); in the assay on CCRF-CEM, 2.49 µM (inactive). In addition, the GI50 was 17.7 µM (inactive) in the assay with EKVX and 17.4 µM (inactive) with MDA-MB-231.
